# According to ChEMBL document CHEMBL5036330, “Discovery of 8,9-seco-ent-Kaurane Diterpenoids as Potential Leads for the Treatment of Triple-Negative Breast Cancer” (J Med Chem, 2021):
# The source made the active and inactive calls. The calls are words filed in the database; no cut-off is given here.
# Tests used:
# MDA-MB-468 [1] = assay: Induction of apoptosis in human MDA-MB-468 cells assessed as late apoptotic cells at 2 uM measured after 24 hrs by Annexin V/Propidium iodide stain based Flow cytometry (reference value: 3.98%); assay type: functional
# [2] = Selectivity index, ratio of IC50 for HEK293 cells to IC50 for human MBA-MB-231 cells; assay type: toxicity; settings: HEK293 cells versus MBA-MB-231 cells, read-out: Selectivity Index
# MDA-MB-231 [3] = assay: Induction of mitochondrial depolarization in human MDA-MB-231 cells assessed as monomers at 5 uM in dark by JC10 staining based fluorescence microscopy (reference value: 5.6%); assay type: functional
# [4] = biological target: RAC-alpha serine/threonine-protein kinase (Homo sapiens) (UniProt P31749); assay: Binding affinity to Akt1 in human MDA-MB-468 cells assessed as shifted melting curve at 2 uM by CETSA assay; assay type: cell-based
# Chain of RAC-alpha serine/threonine-protein kinase (Homo sapiens) (P31749 whole entry): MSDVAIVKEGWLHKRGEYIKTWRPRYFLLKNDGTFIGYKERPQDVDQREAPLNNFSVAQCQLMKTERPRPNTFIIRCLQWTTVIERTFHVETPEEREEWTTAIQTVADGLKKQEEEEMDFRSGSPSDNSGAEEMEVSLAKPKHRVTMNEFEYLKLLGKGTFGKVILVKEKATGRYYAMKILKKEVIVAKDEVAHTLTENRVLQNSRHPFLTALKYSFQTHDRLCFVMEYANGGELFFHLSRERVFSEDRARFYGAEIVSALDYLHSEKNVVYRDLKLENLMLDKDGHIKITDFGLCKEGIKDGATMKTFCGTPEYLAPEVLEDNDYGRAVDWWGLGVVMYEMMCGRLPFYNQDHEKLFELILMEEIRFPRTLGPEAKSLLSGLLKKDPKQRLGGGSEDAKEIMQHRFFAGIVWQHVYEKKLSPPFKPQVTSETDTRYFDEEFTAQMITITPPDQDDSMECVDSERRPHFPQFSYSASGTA
# MDA-MB-231 [5] = assay: Induction of mitochondrial depolarization in human MDA-MB-231 cells assessed as aggregates at 2 uM in dark by JC10 staining based fluorescence microscopy (reference value: 94.4%); assay type: functional
# [6] = biological target: Serine/threonine-protein kinase mTOR (Homo sapiens) (UniProt P42345); assay: Inhibition of mTOR phosphorylation in human MDA-MB-231 cells measured after 24 hrs by Western blot analysis; assay type: cell-based; settings: dose 1-5 µM
# MDA-MB-231 [7] = assay: Antiproliferative activity against human MDA-MB-231 cells assessed as supression of long term proliferative capacity measured after 2 weeks by Colony formation assay; assay type: functional, cell-based; settings: dose 0.05-0.2 µM
# MDA-MB-231 [8] = assay: Induction of cell cycle arrest in human MDA-MB-231 cells assessed as accumulation of cells at G2 phase at 2 uM measured after 24 hrs by flow cytometry (reference value: 20.2%); assay type: functional
# MCF7 = assay: Cytotoxicity against human MCF7 cells assessed as reduction in cell viability incubated for 96 hrs by MTT method; assay type: functional, cell-based; settings: MCF7, 96 h
# MDA-MB-231 [9] = assay: Induction of cell cycle arrest in human MDA-MB-231 cells assessed as accumulation of cells at G1 phase at 2 uM measured after 24 hrs by flow cytometry (reference value: 47.7%); assay type: functional
# MDA-MB-468 [10] = assay: Induction of apoptosis in human MDA-MB-468 cells assessed as late apoptotic cells at 5 uM measured after 24 hrs by Annexin V/Propidium iodide stain based Flow cytometry (reference value: 3.98%); assay type: functional
# MDA-MB-468 [11] = assay: Induction of apoptosis in human MDA-MB-468 cells assessed as decrease in Bcl2/Bax ratio at 1 to 5 uM measured after 24 hrs by Western blot analysis; assay type: functional, cell-based; settings: dose 1-5 µM
# MDA-MB-468 [12] = assay: Effect on mTOR expression in human MDA-MB-468 cells measured at 1 to 5 uM after 24 hrs by Western blot analysis; assay type: functional, cell-based; settings: dose 1-5 µM
# MDA-MB-231 [13] = assay: Antiinvasive activity against in human MDA-MB-231 cells measured at 0.2 uM upto 72 hrs by transwell invasion assay relative to control; assay type: functional; settings: MDA-MB-231, 72 h, time hrs <=72
# MDA-MB-468 [14] = assay: Induction of mitochondrial depolarization in human MDA-MB-468 cells assessed as monomers at 5 uM in dark by JC10 staining based fluorescence microscopy (reference value: 8.4%); assay type: functional
# MDA-MB-468 [15] = assay: Induction of autophagy in human MDA-MB-468 cells assessed as elimination of p62 at 1 to 5 uM incubated for 24 hrs by Western blot analysis; assay type: functional, cell-based; settings: dose 1-5 µM
# MDA-MB-231 [16] = assay: Induction of apoptosis in human MDA-MB-231 cells assessed as late apoptotic cells at 2 uM measured after 24 hrs by Annexin V/Propidium iodide stain based Flow cytometry (reference value: 2.78%); assay type: functional
# MDA-MB-231 [17] = assay: Induction of autophagy in human MDA-MB-231 cells assessed as elimination of p62 at 1 to 5 uM incubated for 24 hrs by Western blot analysis; assay type: functional, cell-based; settings: dose 1-5 µM
# MDA-MB-468 [18] = assay: Induction of mitochondrial depolarization in human MDA-MB-468 cells assessed as aggregates at 1 uM in dark by JC10 staining based fluorescence microscopy (reference value: 91.6%); assay type: functional
# MDA-MB-468 [19] = assay: Anticancer activity in human MDA-MB-468 cells xenografted mouse model assessed as tumor growth inhibition at 10 mg/kg, ip treated for 33 days relative to control; assay type: functional, organism-based; settings: time 33.0 day
# MDA-MB-231 [20] = assay: Antiinvasive activity against in human MDA-MB-231 cells assessed as reduction in MMP9 expression measured upto 72 hrs by Western blot analysis; assay type: functional, cell-based; settings: dose 0.1-0.2 µM, time hrs <=72
# MDA-MB-468 [21] = assay: Effect on Akt expression in human MDA-MB-468 cells measured at 1 to 5 uM after 24 hrs by Western blot analysis; assay type: functional, cell-based; settings: dose 1-5 µM
# MDA-MB-468 [22] = assay: Induction of apoptosis in human MDA-MB-468 cells assessed as increase in cleaved caspase 3 at 1 to 5 uM measured after 24 hrs by Western blot analysis; assay type: functional, cell-based; settings: dose 1-5 µM
# MDA-MB-468 [23] = assay: Induction of mitochondrial depolarization in human MDA-MB-468 cells assessed as monomers at 2 uM in dark by JC10 staining based fluorescence microscopy (reference value: 8.4%); assay type: functional
# MDA-MB-468 [24] = assay: Induction of autophagy in human MDA-MB-468 cells assessed as increase in LC3-II expression at 1 to 5 uM incubated for 24 hrs by Western blot analysis; assay type: functional, cell-based; settings: dose 1-5 µM
# MDA-MB-231 [25] = assay: Cytotoxicity against Akt1-silenced human MBA-MB-231 cells assessed as cell viability measured after 24 hrs; assay type: functional, cell-based
# MDA-MB-231 [26] = assay: Antitumor activity against human MDA-MB-231 cells xenografted in NOD/SCID mouse assessed as decrease in CD31 expression in tumor tissue at 5 to 10 mg/kg, ip treated for 33 days by immunohistochemical analysis; assay type: functional, organism-based; settings: dose 5-10 mg/kg, time 33.0 day
# MDA-MB-468 [27] = assay: Induction of autophagy in human MDA-MB-468 cells assessed as increase in ATG5 expression at 1 to 5 uM incubated for 24 hrs by Western blot analysis; assay type: functional, cell-based; settings: dose 1-5 µM
# MCF-10A = assay: Cytotoxicity against human MCF-10A cells assessed as reduction in cell viability incubated for 96 hrs by MTT method; assay type: cell-based
# MDA-MB-468 [28] = assay: Induction of mitochondrial depolarization in human MDA-MB-468 cells assessed as aggregates at 2 uM in dark by JC10 staining based fluorescence microscopy (reference value: 91.6%); assay type: functional
# [29] = Selectivity index, ratio of IC50 for human MCF-10A cells to IC50 for human MBA-MB-231 cells; assay type: functional
# MDA-MB-231 [30] = assay: Inhibition of PI3K phosphorylation in human MDA-MB-231 cells measured at 1 to 5 uM after 24 hrs by Western blot analysis; assay type: cell-based; settings: dose 1-5 µM
# MDA-MB-468 [31] = assay: Inhibition of PI3K phosphorylation in human MDA-MB-468 cells measured at 1 to 5 uM after 24 hrs by Western blot analysis; assay type: cell-based; settings: dose 1-5 µM
# [32] = Toxicity in NOD/SCID mouse assessed as cytotoxicity in spleen at 10 mg/kg, ip treated for 33 days by H&E staining analysis; assay type: organism-based; settings: in vivo, 792 h, time 33 day
# MDA-MB-468 [33] = assay: Antitumor activity against human MDA-MB-468 cells xenografted in NOD/SCID mouse assessed as decrease in Ki67 expression in tumor tissue at 5 to 10 mg/kg, ip treated for 33 days by immunohistochemical analysis; assay type: functional, organism-based; settings: dose 5-10 mg/kg, time 33.0 day
# [34] = Toxicity in NOD/SCID mouse assessed as cytotoxicity in liver at 10 mg/kg, ip treated for 33 days by H&E staining analysis; assay type: organism-based; settings: in vivo, 792 h, time 33 day
structure (smiles),measurement,setting,value
C=C1C(=O)C2=C[C@H]1CCC(=O)[C@]1(C)[C@H](O)CCC(C)(C)[C@H]1C[C@H]2O,Activity,MDA-MB-468 [1],12.5%
same,selectivity ratio,[2],26.2
same,Activity,MDA-MB-231 [3],76.2%
same,Activity,[4],Active
same,Activity,MDA-MB-231 [5],56.9%
same,inhibition,[6],Active
same,Activity,MDA-MB-231 [7],Active
same,Activity,MDA-MB-231 [8],31.7%
same,IC50,MCF7,113 nM
same,Activity,MDA-MB-231 [9],33.8%
same,Activity,MDA-MB-468 [10],25.9%
same,Activity,MDA-MB-468 [11],Active
same,Activity,MDA-MB-468 [12],inactive
same,inhibition at 0.2 µM,MDA-MB-231 [13],80%
same,Activity,MDA-MB-468 [14],86.6%
same,Activity,MDA-MB-468 [15],Active
same,Activity,MDA-MB-231 [16],13.6%
same,Activity,MDA-MB-231 [17],Active
same,Activity,MDA-MB-468 [18],61.6%
same,Activity,MDA-MB-468 [19],Active
same,Activity,MDA-MB-231 [20],Active
same,Activity,MDA-MB-468 [21],inactive
same,Activity,MDA-MB-468 [22],Active
same,Activity,MDA-MB-468 [23],78.5%
same,Activity,MDA-MB-468 [24],Active
same,Activity,MDA-MB-231 [25],inactive
same,Activity,MDA-MB-231 [26],Active
same,Activity,MDA-MB-468 [27],Active
same,IC50,MCF-10A,1050 nM
same,Activity,MDA-MB-468 [28],21.5%
same,Selectivity Index,[29],14
same,inhibition,MDA-MB-231 [30],inactive
same,inhibition,MDA-MB-468 [31],inactive
same,Activity,[32],Non-Toxic
same,Activity,MDA-MB-468 [33],Active
same,Activity,[34],Non-Toxic
